Entries after “also recorded” stand apart in the source; their conditions may differ. Where no end group is shown, it is not given here. [ ]: non-standard residue; d: D form. sY = N[C@@H](Cc1ccc(OS(=O)(=O)O)cc1)C(=O)O
What was measured:
BA8 Fab [1] = test: SPR analysis of sulfated, non-sulfated and partially sulfated CCR5 N-terminal peptides with BA8; assay type: binding, rabbit; conditions: for binding of peptide to BA8 in SPR, in words / Kd / koff: BA8 Fab immobilized, SPR; for binding of peptide to BA8 in SPR, in words: peptides 2 to 162 nM as analyte (statements of b30 and b31 cover SPR and ITC); for kon: SPR Biacore 8K, BA8 Fab immobilized on CM5 chip, PBS 0.005% Tween 20, global fitting; for kon / Kd / koff: partially sulfated peptide as analyte
Description: To quantitatively evaluate the intermolecular interaction between BA8 and the sulfated N-terminal peptide of CCR5, we prepared a Fab fragment of BA8 as a recombinant protein (Fig. S2, A and B) and conducted kinetic interaction analysis using SPR. The Fab was immobilized on a sensor chip using amine coupling, and the synthesized sulfated and non-sulfated N-terminal peptides of CCR5 were used as the analytes.
(§1) We prepared these partially sulfated peptides and analyzed their interactions with BA8 using SPR and ITC (Fig. 4, B and C, Tables 3 and 4). […] These findings indicate that sulfation at 7Tys is essential for BA8 recognition. […] Thus, the high specificity and affinity of BA8 for the sulfated CCR5 N-terminal peptide likely rely heavily on the sulfation at 7Tys and 8Tys. […] In other words, BA8 recognizes not only sulfation of the N-terminal peptide of CCR5, but it is also selective about the sulfation site.
The bindings of the peptides to Fabs were analyzed using a Biacore 8K instrument (Cytiva). Each Fab was immobilized on the surface of a CM5 sensor chip (Cytiva) by the amine-coupling method according to the manufacturer’s instructions in the condition of pH 5.5. The immobilization level reached to about 3000 Response Unit (RU). PBS containing 0.005% Tween 20 was used as the running buffer. The kinetic data were obtained by injection of increasing concentrations of peptides into the sensor chip. The flow rate of the analyte were set to 30 μl/min. The data were analyzed using BIAevaluation software (Cytiva), and the binding affinity as well as kinetic parameters were calculated by a global fitting of the curves.

BA8 Fab [2] = test: ITC analysis of sulfated, non-sulfated and partially sulfated CCR5 N-terminal peptides with BA8; assay type: binding, rabbit; conditions: PBS; for Kd / ΔH: 10 μM BA8 Fab in cell, 100 μM peptide in syringe, 25 °C
Description: To determine the thermodynamic parameters accompanying the interaction, we performed an ITC analysis (Fig. 2B, Table 2).
as §1
The ITC experiments were performed using a MicroCal PEAQ-ITC (Malvern Panalytical, Malvern, UK). The BA8 Fab fragment antibody, sufficiently dialyzed in PBS, was adjusted to 10 μM for the cells, and the CCR5 N-terminal peptide, dissolved in the dialysate, was adjusted to 100 μM for the syringe. The first injection of 0.5 μl (omitted from the analysis) was followed by 19 injections of 2 μl with 120 s intervals at a constant temperature of 25 °C. The titration syringe was continuously stirred at 750 rpm.
The baselines were smoothly adjusted for the step after each titration saturated and fitted as one set of sites binding in MicroCal PEAQ-ITC Analysis Software (Malvern Panalytical, Malvern, UK).

BA8 Fab [3] = test: DSF stabilizing effect of peptides on BA8; parameters: species or system rabbit; conditions: BA8 Fab before and after binding of peptide (solution after ITC)
Experimental: To assess the effect of sulfated peptide binding on the thermal stability of BA8, we performed differential scanning fluorimetry (DSF) measurements (Fig. 2C) ([25]). The melting temperature (Tm) of BA8 forming a complex with the sulfated peptide was 75.6 °C, whereas the pre-binding Tm was 70.8 °C.
The stabilization effect of the addition of these partially sulfated peptides on BA8 was evaluated using DSF measurements (Fig. S8).
The DSF thermal stability measurements were performed using a CFX Real-Time PCR System (Bio-Rad). First, 1 μl of 100 × SYPRO Orange stain was diluted with 19 μl of 8.3 μM unbound-BA8 Fab or the solution remaining in the cell after ITC measurement. Next, fluorescence was scanned every minute to obtain melting curves of the solutions as they were heated at 1.0 °C/min. The change in the scanned relative fluorescence unit per unit time was recorded, and the temperature at its peak was considered to be the melting temperature (Tm) ([42]).

[4] = tested on: YU2 (CCR5 tropic strain) strain in TZM-bl cells; test: Pseudoviral assay (single-round viral infective assay) in TZM-bl cells; assay type: cell-based, HIV; conditions: 48 h post-infection, luciferase read-out, BA8 up to 50 μg/ml (approximately 350 nM)
Experimental: Subsequently, we conducted a pseudoviral test using TZM-bl cells.
The anti-HIV activity of BA8, isotype control antibody, and Maraviroc (Sigma-Aldrich) in a single-round viral infective assay against the YU2 (CCR5 tropic strain) strain in TZM-bl cells. At 48 h post-infection, cells were lysed, and relative light units were measured using a Steady-Glo luciferase assay system and GloMax Discover microplate reader (Promega).

[5] = target: endogenous CCR5 expressed on TZM-bl cells (human (endogenous in TZM-bl)) (UniProt P51681); test: flow cytometry on cells; transfected HEK293 cells (C, C1, C2, C12) or TZM-bl cells fixed with 2% paraformaldehyde; BA8 IgG detected with goat anti-rabbit IgG Alexa 488; median fluorescence against BA8 concentration fitted with a sigmoid function
[6] = target: full-length CCR5-FLAG co-expressed with TPST2 in HEK293 cells (C2 cells), sulfated by TPST2 (UniProt P51681); test: as above
[7] = target: full-length CCR5-FLAG co-expressed with TPST1 and TPST2 in HEK293 cells (C12 cells), sulfated by TPST2 (UniProt P51681); test: as above
Chain of full-length CCR5-FLAG co-expressed with TPST1 and TPST2 in HEK293 cells (C12 cells), sulfated by TPST2 (P51681 whole entry): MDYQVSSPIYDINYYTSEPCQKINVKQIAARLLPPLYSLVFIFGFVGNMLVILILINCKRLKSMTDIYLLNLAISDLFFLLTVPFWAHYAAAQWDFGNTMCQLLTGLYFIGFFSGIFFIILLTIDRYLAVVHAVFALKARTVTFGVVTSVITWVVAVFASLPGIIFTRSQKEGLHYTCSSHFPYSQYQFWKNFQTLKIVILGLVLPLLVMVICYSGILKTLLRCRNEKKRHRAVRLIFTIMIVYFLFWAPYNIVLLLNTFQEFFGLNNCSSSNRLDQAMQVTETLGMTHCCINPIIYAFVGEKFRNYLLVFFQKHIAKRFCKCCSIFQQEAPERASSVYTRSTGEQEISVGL

Chain of endogenous CCR5 expressed on TZM-bl cells (human (endogenous in TZM-bl)) (P51681 whole entry): as above
Chain of full-length CCR5-FLAG co-expressed with TPST2 in HEK293 cells (C2 cells), sulfated by TPST2 (P51681 whole entry): as above

Molecule: sulfated peptide: CCR5 N-terminal peptide Pro8 to Ser18 with sulfated Tyr10, Tyr14, and Tyr15; fully sulfated (PI[sY]DIN[sY][sY]TSE; UniProt P51681 8-18, looked up, fragment)
- binding of peptide to BA8 in SPR, in words (BA8 Fab [1]): high binding affinity in the nanomolar range
- binding of peptide to BA8 in ITC, in words (BA8 Fab [2]; 10 μM BA8 Fab, 100 μM peptide): so high that it could not be accurately measured

Molecule: TYS7: partially sulfated CCR5 N-terminal peptide containing 7Tys (PIYDIN[sY]YTSE; UniProt P51681 8-18, looked up, fragment)
- kon (BA8 Fab [1]): 228000 mol/L/s
- Kd (BA8 Fab [1]): 0.0678 µM
- koff (BA8 Fab [1]): 0.0154 s⁻¹
- binding of peptide to BA8 in SPR, in words (BA8 Fab [1]): bound; also recorded: weak binding
- effect of the peptide on the thermal stability (Tm) of BA8, in words (BA8 Fab [3]): contribute to the stabilization of BA8; also recorded: lower than those of TYS3,7,8
- Kd (BA8 Fab [2]): 0.0134 µM
- ΔH (BA8 Fab [2]): -62.3 kJ/mol
- ΔG (BA8 Fab [2]; 10 μM BA8 Fab, 100 μM peptide): -44.8 kJ/mol
- −TΔS (BA8 Fab [2]; 10 μM BA8 Fab, 100 μM peptide): 17.6 kJ/mol

Molecule: TYS3,8: partially sulfated CCR5 N-terminal peptide containing 3Tys and 8Tys (PI[sY]DINY[sY]TSE; UniProt P51681 8-18, looked up, fragment)
- binding of peptide to BA8 in SPR, in words (BA8 Fab [1]): did not exhibit binding
- binding of peptide to BA8 in SPR, in words (BA8 Fab [1]; listed as TYS38): no binding
- effect of the peptide on the thermal stability (Tm) of BA8, in words (BA8 Fab [3]): did not change the thermal stability of BA8 at all

Molecule: TYS3,7: partially sulfated CCR5 N-terminal peptide containing 3Tys and 7Tys (PI[sY]DIN[sY]YTSE; UniProt P51681 8-18, looked up, fragment)
- kon (BA8 Fab [1]): 265000 mol/L/s
- Kd (BA8 Fab [1]): 0.045 µM
- koff (BA8 Fab [1]): 0.0119 s⁻¹
- binding of peptide to BA8 in SPR, in words (BA8 Fab [1]): weak binding
- binding of peptide to BA8 in SPR, in words (BA8 Fab [1]; listed as TYS37): bound
- effect of the peptide on the thermal stability (Tm) of BA8, in words (BA8 Fab [3]): lower than those of TYS3,7,8
- effect of the peptide on the thermal stability (Tm) of BA8, in words (BA8 Fab [3]; listed as TYS37): contribute to the stabilization of BA8
- Kd (BA8 Fab [2]): 0.00765 µM
- ΔH (BA8 Fab [2]): -66.1 kJ/mol
- ΔG (BA8 Fab [2]; 10 μM BA8 Fab, 100 μM peptide): -46.4 kJ/mol
- −TΔS (BA8 Fab [2]; 10 μM BA8 Fab, 100 μM peptide): 19.6 kJ/mol

Molecule: TYS3: partially sulfated CCR5 N-terminal peptide containing 3Tys (PI[sY]DINYYTSE; UniProt P51681 8-18, looked up, fragment)
- binding of peptide to BA8 in SPR, in words (BA8 Fab [1]): no binding; also recorded: did not exhibit binding
- effect of the peptide on the thermal stability (Tm) of BA8, in words (BA8 Fab [3]): did not change the thermal stability of BA8 at all

Molecule: Maraviroc [reference compound]
- inhibition of HIV infection, in words [4]: inhibited HIV infection; also recorded: concentration-dependent inhibition of viral infection

B1: BA8 full-length IgG (recombinant, rabbit IgG Fc) (antibody, V domains shown)
VH: QSLEESGGGLFKPTDTLTLTCTVSGFSLSSYSIRWVRQAPGNGLEWIGAIGSGGNAYYTSWAKSRSTITRNTNENTVTLKMTSLTVADTATYFCARGGINFGIWGPGTLVTVSS
VL: AAVLTQTPSPVSAAVGSTVTINCQSSQSVYSKNWLSWFQQKPGQPPKQLIYSASTLDSGVPSRFSGSGSGTQFTLTISGVQCDDAATYYCQGTYGDASAFGGGTEVVVK
- EC50 [5]: 0.049 µM
- EC50 [6]: 0.00364 µM
- EC50 [7]: 0.00371 µM
